Assay results reported in article PMC12527173, “Cytotoxic, anti-inflammatory, antioxidant, and anti-glyoxalase-I evaluation of chelating substances: In silico and in vitro study” (PLOS One, 2025).
Like-named read-outs stand apart in the source and are kept apart here.

Key:
[1] = target: T1, human recombinant Glo-I enzyme (rhGlo-I) (Homo sapiens, UniProt Q04760); assay: Glyoxalase-I (Glo-I) enzyme inhibition assay; assay type: biochemical; conditions: for Maximum (descriptive statistics of enzyme inhibition): highest mean inhibition over the tested concentrations; for Maximum (descriptive statistics of enzyme inhibition) / Minimum (descriptive statistics of enzyme inhibition): in % (unit assumed); for Minimum (descriptive statistics of enzyme inhibition): lowest mean inhibition over the tested concentrations
T1 construct: N-terminal Met and 6-His tag (N); purchased R&D Systems; host or cells: E. coli
T1 sequence (Q04760 2-184 limits assumed): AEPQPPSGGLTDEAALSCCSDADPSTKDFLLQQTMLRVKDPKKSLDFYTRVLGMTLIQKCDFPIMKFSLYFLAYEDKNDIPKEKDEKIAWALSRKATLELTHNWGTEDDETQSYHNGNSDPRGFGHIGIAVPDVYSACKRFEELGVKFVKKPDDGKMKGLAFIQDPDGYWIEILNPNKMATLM
Procedure: Solvents and chemicals were procured from Sigma-Aldrich Co. and Acros (ThermoFisher Scientific, New Jersey, USA). […] The enzyme was obtained from R&D Systems® Corporation in the USA. Synthetic compounds were tested for their inhibitory effects on the enzyme using a 10 mM DMSO stock concentration in triplicates. The manufacturer’s protocol from R & D Systems, Inc. in Minneapolis, MN, USA was followed for the in vitro experiments. The reconstituted Glo-I enzyme (0.5 mg/mL) was thawed after being stored at −70°C in sterile deionized water. […] The monitoring was done at a wavelength of 240 nm for 200 seconds at 37°C. The substrate mixture was freshly concocted with a concentration of 100 mM glutathione and 100 mM methylglyoxal (MG) in assay buffer containing 0.5 M sodium phosphate dibasic/monobasic. It was then left undisturbed at room temperature for 15 minutes […]. The selected compounds for investigation are subsequently produced in testing concentration ranges using a 0.1 M solution of sodium phosphate dibasic/monobasic with a pH range of 7–7.2. The blank contained an assay buffer with MG substrate. The test compounds were combined with human recombinant Glo-I (50 µM) in a 96-well plate to determine their kinetic behavior.

[2] = test system: SW480 colorectal cancer cell line; assay: SRB cytotoxicity assay, SW480; assay type: cell-based; conditions: Homo sapiens, 72 h incubation, n = 12, read-out: Cytotoxicity (as of %Control) IC50 value SW480
Procedure: (§1) The cancer cell lines were cultured in DMEM supplemented with 10% FBS (Bio Whittaker, Verviers, Belgium), HEPES Buffer (10 mM), gentamicin (50 µg/mL), L-glutamine (100 μg/mL), streptomycin ([…]), penicillin (100 µg/mL), and 4-(2-hydroxyethyl)-1-piperazineethanesulfonic acid (HEPES) Buffer (Sigma, St. Luis, MO, USA). The Sulforhodamine B used was obtained from Santa Cruz Biotechnology, Inc. in Texas, USA. […] Periodontal ligament fibroblasts (PDL) were utilized to assess specific cytotoxicity. Cancer cell lines that have survived offer several benefits. They provide a consistent and uninterrupted source of cells, so bypassing any ethical concerns related to the use of human tissue. Additionally, they are cost-effective. The cytotoxicity levels were assessed using the Sulforhodamine B (SRB) colorimetric assay, provided by Santa Cruz Biotechnology, Inc. in Texas, USA. The Spectro Scan 80D UV-VIS spectrophotometer, manufactured by Sedico Ltd. in Nicosia, Cyprus, was employed for this cytotoxicity screening. The cells were co-incubated with substances or a reference agent at various doses ranging from 5 to 200 μg/mL. […] The reduction in cell viability was analyzed by plotting Dose-response curves and expressing the data as a percentage of the control optical density. The IC50 values were obtained using regression analysis.

[3] = SRB cytotoxicity assay, normal PDL fibroblasts; assay type: cell-based; conditions: normal periodontal ligament (PDL) fibroblasts, 72 h incubation, 0.1–200 µM range, read-out: Cytotoxicity (as of %Control) IC50 value PDL fibroblasts
Procedure: as §1

[4] = test system: A375 human skin cancer cell line; assay: SRB cytotoxicity assay, A375; assay type: cell-based; conditions: A-375, 72 h incubation, n = 12, read-out: Cytotoxicity (as of %Control) IC50 value A375 skin melanoma
Procedure: as §1

[5] = test system: Human PC3 prostate cancer cell line; assay: SRB cytotoxicity assay, PC3; assay type: cell-based; conditions: 72 h incubation, n = 12, read-out: Cytotoxicity (as of %Control) IC50 value PC3 prostate malignancy
Procedure: as §1

[6] = DPPH free radical scavenger assay; conditions: DPPH radical scavenging; n = 12
Text: This approach relies on the reduction of the radicals, which causes a change in colour from oxidized purple to reduced yellow. Primarily, Diphenyl-2-picryl-hydrazyl (DPPH) is reduced in a solution of methanol (MeOH) when a chemical that donates hydrogen is present. This reduction is due to the creation of the non-radical form DPPH-H. The alteration in colour can be precisely assessed by employing a spectrophotometer within the wavelength range of 515–520 nm. Unlike other assays for radical scavenging, the DPPH radical is stable and yields consistent spectroscopic data. A 0.2 mM DPPH solution was diluted with MeOH and then combined with treatment compounds and ascorbic acid in a 1:1 concentration ratio using a 96-well plate. […] The solution was then incubated for one hour, isolated from light. Subsequently, the alteration in absorbance at a wavelength of 517 nm was quantified using a microplate reader manufactured by Bio-Tek Instrument in the United States. Ascorbic acid served as a strong and traditional benchmark for comparing the effectiveness of radical scavenging agents. The DPPH radical scavenging activity inhibition was calculated using the following equation, where A denotes photometric absorbance: The formula to calculate the percentage difference between a control and a sample is: (A control – A sample)/ A control x 100% [71, 72].

[7] = read-out: Trial one (%inhibtion)
[8] = read-out: Trial three (%inhibtion)
[9] = read-out: Trial two (%inhibtion)
[10] = 3.125 µM, read-out: Trial one (%inhibtion)
[11] = 3.125 µM, read-out: Trial three (%inhibtion)
[12] = 3.125 µM, read-out: Trial two (%inhibtion)
[13] = 6.25 µM, read-out: Trial one (%inhibtion)
[14] = 6.25 µM, read-out: Trial three (%inhibtion)
[15] = 6.25 µM, read-out: Trial two (%inhibtion)
[16] = 12.5 µM, read-out: Trial one (%inhibtion)
[17] = 12.5 µM, read-out: Trial three (%inhibtion)
[18] = 12.5 µM, read-out: Trial two (%inhibtion)
[19] = 25 µM, read-out: Trial one (%inhibtion)
[20] = 25 µM, read-out: Trial three (%inhibtion)
[21] = 25 µM, read-out: Trial two (%inhibtion)
[22] = 50 µM, read-out: Trial one (%inhibtion)
[23] = 50 µM, read-out: Trial three (%inhibtion)
[24] = 50 µM, read-out: Trial two (%inhibtion)
[25] = human recombinant Glo-I, triplicates, read-out: IC50 µM ± SD

| inhibition at 3.125 µM [1, 10] | inhibition at 3.125 µM [1, 11] | inhibition at 3.125 µM [1, 12] | inhibition at 6.25 µM [1, 13] | inhibition at 6.25 µM [1, 14] | inhibition at 6.25 µM [1, 15] | inhibition at 12.5 µM [1, 16] | inhibition at 12.5 µM [1, 17] | inhibition at 12.5 µM [1, 18] | inhibition at 25 µM [1, 19] | inhibition at 25 µM [1, 20] | inhibition at 25 µM [1, 21] | inhibition at 50 µM [1, 22] | Maximum (descriptive statistics of enzyme inhibition) [1] | Minimum (descriptive statistics of enzyme inhibition) [1] | IC50 [6] | SMILES | IC50 [2] | IC50 at 72 h [3] | IC50 [4] | IC50 [5] | also measured |
| --- | --- | --- | --- | --- | --- | --- | --- | --- | --- | --- | --- | --- | --- | --- | --- | --- | --- | --- | --- | --- | --- |
| 10.9% | 20.2% | 4.72% | 19.1% | 24% | 10% | 29.5% | 34.3% | 19.2% | 47.9% | 43.5% | 32.4% | 53.5% | 50.76 | 11.95 | 26.3 ± 0.65 µM | O=c1cc(O)cc(/C=C/c2ccc(O)c(O)c2)o1 [Hispidin] | 34.6 ± 3.11 µM | > 200 µM | 98.9 ± 9 µM | 139 ± 13.6 µM | inhibition at 50 µM [1, 23]: 54.5%; inhibition at 50 µM [1, 24]: 44.3%; IC50 [1, 25]: 36.4 ± 16.1 µM |
| 22.8% | 28.6% | 19.5% | 32.6% | 33.7% | 28.6% | 37.2% | 41.8% | 35.4% | 42.7% | 43.6% | 46.6% | 55.5% | 56.90 | 23.66 | 580 ± 26.5 µM | O=C1c2ccc(O)c(O)c2C(=O)c2c(O)ccc(O)c21 [Quinalizarin] | 118 ± 3.04 µM | > 200 µM | 48.6 ± 1.8 µM | 143.1 ± 0.18 µM | inhibition at 50 µM [1, 23]: 55.3%; inhibition at 50 µM [1, 24]: 59.9%; IC50 [1, 25]: 33.4 ± 12.6 µM |
| 12.3% | 20.4% | 19.4% | 28% | 36.3% | 39.7% | 54.2% | 56.5% | 60.9% | 78.1% | 80.9% | 82.1% | 96.1% | 98.66 | 17.38 | 92.1 ± 2.4 µM | Cc1ccc(C(=O)c2cc(O)c(O)c([N+](=O)[O-])c2)cc1 [Tolcapone, reference compound] | 165 ± 6.58 µM | > 200 µM | 64.1 ± 1.1 µM | 257 ± 37.1 µM | inhibition at 50 µM [1, 23]: 102%; inhibition at 50 µM [1, 24]: 97.6%; IC50 [1, 25]: 9.6 µM |

| SMILES | inhibition at 3.125 µM [1, 10] | inhibition at 3.125 µM [1, 11] | inhibition at 3.125 µM [1, 12] | inhibition at 6.25 µM [1, 13] | inhibition at 6.25 µM [1, 14] | inhibition at 6.25 µM [1, 15] | inhibition at 12.5 µM [1, 16] | inhibition at 12.5 µM [1, 17] | inhibition at 12.5 µM [1, 18] | inhibition at 25 µM [1, 19] | inhibition at 25 µM [1, 20] | inhibition at 25 µM [1, 21] | inhibition at 50 µM [1, 22] | Maximum (descriptive statistics of enzyme inhibition) [1] | Minimum (descriptive statistics of enzyme inhibition) [1] | IC50 [6] | IC50 [2] | IC50 at 72 h [3] | IC50 [4] | IC50 [5] | also measured |
| --- | --- | --- | --- | --- | --- | --- | --- | --- | --- | --- | --- | --- | --- | --- | --- | --- | --- | --- | --- | --- | --- |
| C[C@]12CC[C@@H]3c4ccc(O)c(O)c4CC[C@H]3[C@@H]1CC[C@@H]2O [4-hydroxy-estradiol] | 93% | 95.6% | 96.1% | 95.6% | 96.1% | 97.7% | 99.8% | 99.3% | 98.7% | 102% | 104% | 102% | 102% | 102.5 | 20.07 | 506 ± 102 µM | 109 ± 6.86 µM | > 200 µM | 47.1 ± 1.9 µM | 82.2 ± 8.56 µM | inhibition at 0.09765 µM [1, 7]: 18%; inhibition at 0.09765 µM [1, 8]: 20.6%; inhibition at 0.09765 µM [1, 9]: 21.7%; inhibition at 0.1953 µM [1, 7]: 57.6%; inhibition at 0.1953 µM [1, 8]: 59.2%; inhibition at 0.1953 µM [1, 9]: 55.5%; inhibition at 0.3906 µM [1, 7]: 69.7%; inhibition at 0.3906 µM [1, 8]: 66%; inhibition at 0.3906 µM [1, 9]: 67.1%; inhibition at 0.7812 µM [1, 7]: 80.8%; inhibition at 0.7812 µM [1, 8]: 81.3%; inhibition at 0.7812 µM [1, 9]: 82.9%; inhibition at 1.562 µM [1, 7]: 99.8%; inhibition at 1.562 µM [1, 8]: 94%; inhibition at 1.562 µM [1, 9]: 91.4%; inhibition at 50 µM [1, 23]: 101%; inhibition at 50 µM [1, 24]: 101%; IC50 [1, 25]: 0.22 µM |
| CC(C)=CC[C@@H](O)C1=CC(=O)c2c(O)ccc(O)c2C1=O [Shikonin] | – | – | – | – | – | – | – | – | – | – | – | – | – | 100.7 | 23.58 | 34.4 ± 5.04 µM | 41.6 ± 6.37 µM | > 200 µM | 56.5 ± 6.9 µM | 176.2 ± 1.25 µM | IC50 [1]: 8.1 µM; inhibition at 3.125 µM [1, 7]: 16.9%; inhibition at 6.25 µM [1, 7]: 34.8%; inhibition at 12.5 µM [1, 7]: 59.4%; inhibition at 25 µM [1, 7]: 72.5%; inhibition at 50 µM [1, 7]: 104%; inhibition at 3.125 µM [1, 8]: 30%; inhibition at 6.25 µM [1, 8]: 51.3%; inhibition at 12.5 µM [1, 8]: 61%; inhibition at 25 µM [1, 8]: 73.9%; inhibition at 50 µM [1, 8]: 101%; inhibition at 3.125 µM [1, 9]: 23.8%; inhibition at 6.25 µM [1, 9]: 45.8%; inhibition at 12.5 µM [1, 9]: 65.1%; inhibition at 25 µM [1, 9]: 74.2%; inhibition at 50 µM [1, 9]: 96.9% |
